Experimental data taken from US20260215432A1, “ANTIMICROBIAL CONJUGATED OLIGOELECTROLYTES AND METHODS THEREOF” (National University of Singapore, priority 2023, published 2026).

How the values were obtained:
A. baumanii (ATCC 17978) = experiment: MIC, broth microdilution in CA-MHB; type: cell-based
Procedure: (§1) Antimicrobial activity was screened against a range of pathogens made up of clinically relevant ESKAPE pathogens by determination of the minimum inhibitory concentration (MIC) in cation-adjusted Mueller-Hinton broth (CA-MHB).
(§2) Minimum inhibitory concentrations of COEs were determined through a broth microdilution method in accordance with the Clinical and Laboratory Standards Institute (CLSI) guidelines M07-A10. A single bacterial colony was isolated from an overnight culture and grown to mid-log phase (OD600~0.8). Compounds were prepared as a stock solution in DMSO and diluted in a sterile flat-bottom 96-well plate in CA-MHB. Subsequent concentrations were prepared by two-fold dilution of the initial solution. An equivalent volume of bacteria was added to the compound to a final concentration of 5×10^5 cfu/mL. Plates were incubated at 37° C. for 16-18 hours, and read at OD600 using a microplate reader (TECAN Spark®). […] MIC values were determined for each compound in triplicate.

[1] = system: E. coli. K12 (ATCC 10798); experiment: MIC, broth microdilution in CA-MHB; type: cell-based
Procedure: as §1, §2

E. facium (ATCC 19434) = experiment: MIC, broth microdilution in CA-MHB; type: cell-based; conditions: CA-MHB
Procedure: as §1, §2

[2] = system: E. faecalis OG1RF (ATCC 47077); experiment: MIC, broth microdilution in CA-MHB; type: cell-based
Procedure: as §1, §2

[3] = system: K. pneumoniae (carbapenem-resistant Enterobacterales) (ATCC BAA1705); experiment: MIC, broth microdilution in CA-MHB; type: cell-based
Procedure: as §1, §2

[4] = system: Methicillin-resistant S. aureus (ATCC BAA1717); experiment: MIC, broth microdilution in CA-MHB; type: cell-based
Procedure: as §1, §2

[5] = system: P. aeruginosa (ATCC47085); experiment: MIC, broth microdilution in CA-MHB; type: cell-based
Procedure: as §1, §2

S. aureus (ATCC 29213) = experiment: MIC, broth microdilution in CA-MHB; type: cell-based
Procedure: as §1, §2

[6] = system: A549 (lung epithelial cells); experiment: Cytotoxicity against mammalian cell line; type: cell-based
Procedure: The cytotoxicity of the TPP COEs was also tested against a mammalian cell line (A549).

[7] = system: Pseudomonas aeruginosa (PAO1, ATCC 47085); experiment: Time-kill kinetics; type: cell-based; conditions: P. aeruginosa, treatment at or above the MBC
Procedure: (§3) Separately, MRSA and P. aeruginosa cultures were challenged with DM6P at varying concentrations and aliquots were taken at specific intervals to quantify the bacteria remaining.
(§4) The time-kill kinetics was determined against Pseudomonas aeruginosa (PAO1, ATCC 47085) and methicillin-resistant Staphylococcus aureus (ATCC BAA-1717). Bacteria tested were subcultured in Cation-Adjusted Mueller Hinton II Broth (CAMHB, BD Biosciences) from overnight cultures to mid-log phase at 37° C. with shaking at 200 rpm and diluted to an OD600 value of 0.2 and aliquoted into 2 mL fractions in culture tubes. The resulting bacterial suspension was then challenged with DM6P at varying concentrations and incubated at 37° C. with shaking at 200 rpm. At regular intervals, 100 μL aliquots of each sample were diluted with 10-fold dilution in PBS and plated on TSB agar plates with 100 μL inoculation. The colonies were incubated at 37° C. overnight and counted to determine the cfu/mL of each sample. Experiments were performed in triplicate.

[8] = system: methicillin-resistant Staphylococcus aureus (ATCC BAA-1717); experiment: Time-kill kinetics; type: cell-based; conditions: MRSA, within the first two hours, concentrations above the MBC value of 4 μg mL^−1
Procedure: as §3, §4

MRSA = experiment: Membrane depolarization assay (DiSC3(5)); type: cell-based, S. aureus; conditions: DiSC3(5)-encapsulated MRSA cells
Excerpt: The interactions of DM6P with various bacterial cell membranes were first investigated through spectrometric methods. In normal cells, compartmentalization of the intracellular space by the lipid bilayer enables the maintenance of a transmembrane potential, which is necessary for regular cell division and energy production. The membrane-potential sensitive dye 3,3′-dipropylthiadicarbocyanine iodide (DiSC3(5)) accumulates within the membranes of healthy, polarized cells where its fluorescence is self-quenched. Depolarization of the membrane necessary to maintain this gradient causes the release of this dye, resulting in an increase in fluorescence intensity. […]
Determination of the extent of depolarization of bacterial cell membranes was carried out using a voltage sensitive dye DiSC3(5) (ThermoFisher, USA). The dye is able to accumulate within polarized healthy cell membranes with resulting quenched fluorescence. When the membrane is depolarized, subsequent ion permeabilization releases the dye from the membrane and gives rise to enhanced fluorescence intensity.^3 The assay was performed according to a modified protocol reported previously. […] The plate was incubated in the dark for 30 minutes, with the signal measured every 5 minutes until a stable baseline was observed. COEs were then added at varying concentrations and the fluorescence intensity was measured over time at 37° C. […]

PAO1 = experiment: Flow cytometry of PI uptake; type: cell-based, P. aeruginosa; conditions: PAO1, 16 μg mL^−1 (4× MIC), PI staining
Procedure: Flow cytometry measurements were carried out to quantify PI uptake at the cellular level.
Bacteria cells were collected from mid-log cultures by centrifugation (7000 rpm, 10 minutes). and washed with PBS twice. Cells were treated with the COE at 4×MIC and incubated for 30 minutes. PI (30 μM, final concentration) was then added and the cells were further incubated for 10 minutes. The suspension was then diluted in PBS to an appropriate cell density and analysed with flow cytometry using an Amnis ImageStreamX Mk II Imaging Flow Cytometer. The collection gate was set using the area vs aspect ratio of the brightfield channel to select for intact cell events only. To select for PI-stained cells, excitation was carried out using a 638 nm laser and the emission was collected in the range of 642-745 nm. Data was processed using IDEAS v6.3.

Compound: COc1cc(/C=C/c2ccc(OCCCCCC[P+](c3ccccc3)(c3ccccc3)c3ccccc3)c(OC)c2)ccc1OCCCCCC[P+](c1ccccc1)(c1ccccc1)c1ccccc1.[I-].[I-] [DM6P]
- MIC AB (A. baumanii (ATCC 17978); CA-MHB): 8 mg/L
- MIC (A. baumanii (ATCC 17978); strain AB, Table 5): 8 mg/L
- MIC EC ([1]; CA-MHB): 2 mg/L
- MIC ([1]; strain EC, Table 5): 2 mg/L
- MIC FAC (E. facium (ATCC 19434)): 1 mg/L
- MIC FAE ([2]; CA-MHB): 1 mg/L
- MIC ([2]; strain EF, Table 5): 1 mg/L
- MIC KP ([3]; CA-MHB): 8 mg/L
- MIC ([3]; strain CRKP, Table 5): 8 mg/L
- MIC MRSA ([4]; CA-MHB): 1 mg/L
- MIC ([4]; strain MRSA, Table 5): 1 mg/L
- MIC ([4]; towards MRSA, Table 3): 1 mg/L
- MIC PA ([5]; CA-MHB): 4 mg/L
- MIC ([5]; strain PA, Table 5): 4 mg/L
- MIC SA (S. aureus (ATCC 29213)): 1 mg/L
- IC50 [6]: 11 mg/L
- killing at or above the MBC value [7]: eradication of the cells
- bacteria remaining (nearly complete killing) [8]: < 100 cfu mL^−1
- depolarization of the bacterial membrane (MRSA): dose-dependent depolarization
- PI uptake at the cellular level (PAO1): near quantitative cell staining with PI
